Patent US12133855B2, “Lipid-like nanocomplexes and uses thereof” (Trustees of Tufts College, priority 2018, dated 2024)

Experiments:
[1] = Storage stability of LNPs (time-dependent DLS, DiO/DiI FRET); format: physicochemical; conditions: DiO and DiI encapsulated LNPs, 7 days of storage
Protocol: The morphologies of LNPs were further studied by the transmission electron microscopy (TEM). […] Subsequently, the stability of LNPs thus prepared was examined by DLS and fluorescence measurements.
The cell (HeLa and HeLa-DsRed cell lines) internalization studies were conducted using small molecular hydrophobic (nile red) and hydrophilic (calcein) fluorescent dyes and macromolecular fluorescent recombinant protein ((−30)GFP-Cre) loaded OCholB LNPs. The stabilities of cargo-loaded LNPs were examined at first using time-dependent DLS and fluorescence measurements.

HeLa cells [2] = assay: MTT cytotoxicity of mRNA-loaded nanoparticles; format: cell-based; conditions: for cell morphology (bright field images): 24 h of exposure; for cell viability: GFP mRNA loaded, lipidoid/mRNA=10/1, [mRNA]=0.86 μg mL^−1, 24 h
Protocol: All experiments were performed in quadruplicate.
Next, the MTT assay was conducted to examine the cytotoxicity of mRNA-loaded nanoparticles against HeLa cells.

[3] = Thiol-triggered size variation of OCholB LNPs (DTT, cysteine; DLS); format: physicochemical; conditions: for decrease in size: 20 μM L-cysteine, 6 h of incubation; for increase of relative size: first 2 h; for increase in averaged hydrodynamic diameter: 24 h
From the text: The thiol-trigged degradation and dissociation of the OCholB LNPs were studied by time-dependent DLS measurements and TEM observation. […] The disruption of the vesicle structure is considered to be resulted from the thiol-exchange and disulfide bond cleavage reactions of OCholB lipidoids. We next investigated whether the thiol-containing molecules (e.g. albumin, cysteine, homocysteine, cysteinylglycine, etc.) in the serum may induce the structural disintegration of these disulfide bond-containing LNPs. The stabilities of LNPs in the presence of 20 μM of L-cysteine (Cys), which mimics the free thiols on the small- and macromolecules presented in the serum, were examined. […] While the degrees of size changes vary between lipidoids with different amine head groups, all lipidoids were more responsive to DTT (modeling intracellular conditions) than to Cysteine (modeling conditions in the blood serum).

HeLa-DsRed cells = assay: Cre mRNA delivery (DsRed+ cells); format: cell-based; conditions: lipidoid/mRNA=10/1, [mRNA]=0.86 μg mL^−1, 24 h
Protocol: (§1) Next, the possibility of using OCholB LNPs to deliver mRNA for genome editing (Cre-loxP and CRISPR/Cas9 systems) purposes was examined. First, Cre mRNA was complexed with OCholB LNPs and tested against HeLa-DsRed cells. The HeLa-DsRed cells express red fluorescent protein, DsRed, only upon Cre protein-mediated recombination. After 24 h of incubation with mRNA/LNPs (lipidoid/mRNA=10/1; [mRNA]=0.86 μg mL^−1), the DsRed^+ cell portions were determined by flow cytometry. […] Then the Cas9 mRNA that expresses a version of Streptococcus pyogenes SF370 Cas9 protein with an N and C terminal nuclear localization signal (NLS) were loaded into LNPs, along with single-guide RNA (sgRNA) that targets a sequence on GFP gene. GFP-HEK cells which steadily express GFP proteins were used a cell model in this case. GFP-cells, indicating a successful Cas9-mediated knockdown of GFP expression, were analyzed using flow cytometry. […] This was also found to be applicable to protein delivery in our previous studies.
(§2) In this context, two strategies were tested, i.e., synthesizing new OCholB-tailed lipidoids with single tail rather than full substitution, and adding helper lipids (phospholipids) into fully substituted OCholB LNPs. Single-tailed lipidoids, 75-OCholB-1, 76-OCholB-1 and […] at first following similar protocols as described before and characterized by ESI-MS ([75-OCholB-1+H]^+, 736.55; [76-OCholB-1+H]^+, 734.64; [77-OCholB-1+H]^+, 748.73). Nanoparticles were than fabricated using the same sonication/vortex procedures and the obtained LNPs were measured by DLS (75-OCholB-1, <Dh>=302.6 nm, μ2/I^2=0.30; 76-OCholB-1, <Dh>=294.5 nm, μ2/I^2=0.30; 77-OCholB-1, <Dh>=254.2 nm, μ2/I^2=0.33). […] 69.4%, 72.5% and 68.9% of GFP^+ cells were determined for mRNA/75-OCholB-1, mRNA/76-OCholB-1 and mRNA/77-OCholB-1 treated HeLa cells, respectively. Cre mRNA could also be efficiently delivered into HeLa-DsRed cells, as 87.3% (mRNA/75-OCholB-1), 82.8% (mRNA/76-OCholB-1) and 81.5% (mRNA/77-OCholB-1) of cells were determined to be DsRed^+ after 24 h of exposure (FIG. 14G). […]

[4] = In vivo toxicity of blank OCholB LNPs (body weight, serum biochemistry); design: species or system Balb/c mice; conditions: blank LNPs 50 μg per injection, tail vein; for serum concentrations of creatinine, urea, AST and ALT: day 1 and 5, blood at day 14; for body weight vs untreated control group: day 1 and day 5, 14 days
Protocol: For in vivo toxicity studies, the body weights of untreated and nanoparticles injected Balb/c mice (housed in a temperature and humidity controlled facility with a 12 h light/dark cycle) were measured at day 1, 3, 5, 7, 9, 11, 13 and 14. Biological functions of kidney and liver were examined by the serum biochemical tests and concentrations of creatinine, urea, aspartate aminotransferase (AST), and alanine aminotransferase (ALT) were measured using corresponding detection kits (MilliporeSigma) following manufacturers' protocols.
The in vivo toxicity of the OCholB LNPs was further examined by measuring body weight change and biological functions of kidney and liver through serum biochemical tests using Balb/c mice. 4-6 weeks old Balb/c mice (n=3) were injected with blank 75-OCholB, 76-OCholB and 77-OCholB LNPs (50 μg LNPs for each injection) through tail vein at day 1 and day 5, body weights were monitored for 14 days, and blood were collected and analyzed at day 14.

HeLa cells [5] = assay: Internalization of Nile red loaded nanoparticles (NR+ cells); format: cell-based; conditions: 4 h of exposure
GFP-HEK cells = assay: Cas9 mRNA and sgRNA delivery, GFP knockout (GFP− cells); format: cell-based; conditions: Cas9 mRNA and sgRNA 1/1; lipidoid/mRNA=10/1; [mRNA]=0.86 μg mL^−1; 48 h
Protocol: as §1, §2

Compound	FRET ratio (I575/I575+I505) variations [1]	cell morphology (bright field images) (HeLa cells [2])	cell viability (HeLa cells [2])	decrease in size [3]	increase of relative size ([3]; 10 mM DTT)	DsRed^+ cells (HeLa-DsRed cells)	serum concentrations of creatinine, urea, AST and ALT [4]	body weight vs untreated control group [4]	NR^+ cells (HeLa cells [5])	GFP^− cells (GFP-HEK cells)	increase in averaged hydrodynamic diameter ([3]; 10 mM DTT)	increase in size ([3]; 10 mM DTT, 6 h)
CC(C)CCCC(C)C1CCC2C3CC=C4CC(OC(=O)NCCSSCCOC(=O)CCN(CCC(=O)OCCSSCCNC(=O)OC5CCC6(C)C(=CCC7C6CCC6(C)C(C(C)CCCC(C)C)CCC76)C5)CCC5CCCN5C)CCC4(C)C3CCC12C (stereo not shown) [Lipidoid 77-OCholB]	negligible variations	no obvious variations	100.1%	7.2%	1591.4%	72.8%	very similar to control mice	negligible differences	90.3%	4.4%	–	–
CC(C)CCCC(C)C1CCC2C3CC=C4CC(OC(=O)NCCSSCCOC(=O)CCN(CCC(=O)OCCSSCCNC(=O)OC5CCC6(C)C(=CCC7C6CCC6(C)C(C(C)CCCC(C)C)CCC76)C5)CCN(C)C)CCC4(C)C3CCC12C (stereo not shown) [Lipidoid 78-OCholB]	–	–	–	–	–	–	–	–	–	–	4642.8%	–
CCN(CC)CCN(CCC(=O)OCCSSCCNC(=O)OC1CCC2(C)C(=CCC3C2CCC2(C)C(C(C)CCCC(C)C)CCC32)C1)CCC(=O)OCCSSCCNC(=O)OC1CCC2(C)C(=CCC3C2CCC2(C)C(C(C)CCCC(C)C)CCC32)C1 (stereo not shown) [Lipidoid 75-OCholB]	negligible variations	no obvious variations	84.7%	12.2%	566.4%	67.2%	very similar to control mice	negligible differences	85.2%	6.1%	2872.4%	1315.7%
CC(C)CCCC(C)C1CCC2C3CC=C4CC(OC(=O)NCCSSCCOC(=O)CCN(C)CCN(CCN(C)CCC(=O)OCCSSCCNC(=O)OC5CCC6(C)C(=CCC7C6CCC6(C)C(C(C)CCCC(C)C)CCC76)C5)CCN(C)CCC(=O)OCCSSCCNC(=O)OC5CCC6(C)C(=CCC7C6CCC6(C)C(C(C)CCCC(C)C)CCC76)C5)CCC4(C)C3CCC12C (stereo not shown) [Lipidoid 304-OCholB]	–	–	–	–	–	–	–	–	–	–	3849.6%	–
CC(C)CCCC(C)C1CCC2C3CC=C4CC(OC(=O)NCCSSCCOC(=O)CCN(CCC(=O)OCCSSCCNC(=O)OC5CCC6(C)C(=CCC7C6CCC6(C)C(C(C)CCCC(C)C)CCC76)C5)CCN5CCCC5)CCC4(C)C3CCC12C (stereo not shown) [Lipidoid 76-OCholB]	negligible variations	no obvious variations	94.5%	14.6%	498.5%	48.7%	very similar to control mice	negligible differences	65.0%	7.7%	–	–
